# Source: publication PMC5520047, “Prioritizing multiple therapeutic targets in parallel using automated DNA-encoded library screening” (Nature Communications, 2017)
# Like-named read-outs stand apart in the source and are kept apart here.
# Columns and labels:
# [1] = test system: E. coli TOP10 ∆TolC, pHN678’ and pHN678’-LolA antisense; assay: MoA study: MIC in lolA antisense expressor; type: cell-based, Escherichia coli; details: for MIC: Escherichia coli; for Fold MIC decrease: lolA antisense plasmid compared to vector alone
# [2] = test system: A. baumannii BM4652 efflux mutant, pRK415 and pRK415-UppS; assay: microbe, parasite or virus in culture; type: cell-based, Acinetobacter baumannii; details: 30 μg/ml polymyxin B nonapeptide; for MIC: Acinetobacter baumannii; for Fold MIC increase: pRK415-UppS overexpressing strain relative to parent strain
# [3] = target: S. aureus methionyl-tRNA synthetase (MRS) (Staphylococcus aureus, UniProt Q5HII6); assay: t-RNA synthetase biochemical assay (MRS); details: average of two replicates with s.d.
# Chain of S. aureus methionyl-tRNA synthetase (MRS) (Q5HII6 whole entry): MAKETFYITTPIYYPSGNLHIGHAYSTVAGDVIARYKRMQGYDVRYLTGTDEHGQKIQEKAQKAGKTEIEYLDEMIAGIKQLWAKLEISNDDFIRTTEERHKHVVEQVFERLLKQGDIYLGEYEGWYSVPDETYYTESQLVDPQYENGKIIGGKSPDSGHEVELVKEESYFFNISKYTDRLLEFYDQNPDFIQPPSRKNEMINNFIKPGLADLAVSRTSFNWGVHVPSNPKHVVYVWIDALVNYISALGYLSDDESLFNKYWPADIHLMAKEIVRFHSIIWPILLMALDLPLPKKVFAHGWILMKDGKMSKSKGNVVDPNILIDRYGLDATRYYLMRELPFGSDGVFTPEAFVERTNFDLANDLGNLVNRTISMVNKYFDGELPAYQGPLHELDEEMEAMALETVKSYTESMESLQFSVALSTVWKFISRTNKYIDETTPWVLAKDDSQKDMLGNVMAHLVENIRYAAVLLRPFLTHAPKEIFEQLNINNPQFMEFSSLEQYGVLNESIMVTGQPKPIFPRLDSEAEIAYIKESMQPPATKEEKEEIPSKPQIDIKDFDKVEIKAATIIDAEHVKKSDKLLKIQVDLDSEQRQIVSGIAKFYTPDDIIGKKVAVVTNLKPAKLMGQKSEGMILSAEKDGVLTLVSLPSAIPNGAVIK
# [4] = test system: S. aureus WCUH29 wild type; assay: MIC broth microdilution; type: cell-based, Staphylococcus aureus; details: Staphylococcus aureus, WCUH29WILDTYPE; S. aureus WCUH29 wild type; read-out: MIC
# [5] = test system: S. aureus RN4220 (pYH4) and RN4220 (pYH4-MRS); assay: MoA study: MIC in MRS overexpressor strain; type: cell-based, Staphylococcus aureus; details: for MIC: Staphylococcus aureus
# [6] = target: S. aureus isoleucyl-tRNA synthetase (IRS) (Staphylococcus aureus, UniProt P41972); assay: t-RNA synthetase biochemical assay (IRS); details: average of two replicates with s.d.
# Chain of S. aureus isoleucyl-tRNA synthetase (IRS) (P41972 whole entry): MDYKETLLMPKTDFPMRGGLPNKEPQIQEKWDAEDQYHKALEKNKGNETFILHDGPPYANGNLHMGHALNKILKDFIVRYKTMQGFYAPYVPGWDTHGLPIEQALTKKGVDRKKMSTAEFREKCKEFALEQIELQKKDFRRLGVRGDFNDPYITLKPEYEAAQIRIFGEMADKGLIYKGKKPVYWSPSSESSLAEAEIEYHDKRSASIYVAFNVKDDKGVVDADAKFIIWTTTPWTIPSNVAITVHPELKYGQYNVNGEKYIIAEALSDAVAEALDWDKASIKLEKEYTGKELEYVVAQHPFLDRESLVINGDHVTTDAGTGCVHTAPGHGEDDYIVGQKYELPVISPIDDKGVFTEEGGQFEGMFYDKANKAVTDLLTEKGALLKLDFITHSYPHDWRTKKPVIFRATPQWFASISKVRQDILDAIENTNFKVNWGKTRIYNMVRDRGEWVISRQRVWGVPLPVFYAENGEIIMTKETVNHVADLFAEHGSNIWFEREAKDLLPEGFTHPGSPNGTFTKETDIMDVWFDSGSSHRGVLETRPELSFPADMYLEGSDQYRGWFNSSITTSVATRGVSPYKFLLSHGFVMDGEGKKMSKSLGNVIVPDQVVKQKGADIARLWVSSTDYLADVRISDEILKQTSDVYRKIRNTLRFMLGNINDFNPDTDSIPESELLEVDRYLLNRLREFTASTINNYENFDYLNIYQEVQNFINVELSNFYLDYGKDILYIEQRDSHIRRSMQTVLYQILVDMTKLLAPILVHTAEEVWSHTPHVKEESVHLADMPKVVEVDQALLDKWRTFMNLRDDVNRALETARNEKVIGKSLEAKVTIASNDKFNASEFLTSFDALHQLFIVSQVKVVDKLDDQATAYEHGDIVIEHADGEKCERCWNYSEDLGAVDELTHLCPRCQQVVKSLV
# [7] = test system: Staphylococcus aureus RN4220; assay: MIC broth microdilution; type: cell-based; details: S. aureus RN4220 Gram-positive
# Description: (§1) 409 remaining NADPH to convert resazurin into the fluorescent resorufin14. The assay buffer containing
# (§2) 410 81.4 mM Hepes pH 7.8, 300 mM KCl, 0.4 mg/mL BSA was used to make the enzyme addition containing
# (§3) 411 1.2 μg/mL Mtb DHFR and 50 μM NADPH. This was added in equal volume (5 μL) to a substrate solution
# (§4) 412 composed of 240 µM DHF in H2O and incubated for 50 min. Developing solution was prepared with
# (§5) 413 0.045 mM Resazurin and 0.6 U/ml Diaphorase in 200 mM sodium phosphate buffer pH 7.8 and 5 μL was
# (§6) 414 added. The experiments were conducted in black 384-well plates (Greiner Catalog # 784076) and all
# (§7) 415 liquid additions were conducted using a Multidrop combi (Thermo Scientific). The plate was read on a
# (§8) 416 ViewLux following a 10 minute delay. Resorufin light production was measured using appropriate
# (§9) 417 Viewlux filters: Ex: 525 / 20 Pol (BODIPY TMR FP) Em: 598 / 25 (BODIPY TMR) (B04). Assay plates were
# (§10) 418 pre-dispensed with 100 nL DMSO or with 100 nL compounds dissolved in neat DMSO using an Echo®
# (§11) 419 liquid handler (Labcyte Inc.) where all wells contained compound samples, except wells in columns 6
# 420 and 18 that contained DMSO control. Column 6 represented 100% Mtb DHFR activity in the absence of […]
# 424 were calculated using the n-1 method. […]
# (§12) 440 saline). […] Fluorescence was measured (Spectramax M5 […]
# (§13) 444 Minimum inhibitory concentrations (MICs) of compounds were determined using broth microdilution […]
# [8] = test system: Acinetobacter baumannii BM4652 ΔadeABC ΔadeIJK (efflux mutant); assay: MIC broth microdilution; type: cell-based
# [9] = test system: A. baumannii BM4652, BM4652/pRK415, BM4652/pRK415-LpxA; assay: MoA study: MIC and MGIC in LpxA overexpressor; type: cell-based; details: Acinetobacter baumannii
# [10] = test system: Klebsiella pneumoniae 1161486a ΔtolC; assay: MIC broth microdilution; type: cell-based
# [11] = test system: Escherichia coli 7623 ΔtolC; assay: MIC broth microdilution; type: cell-based
# [12] = test system: A. baumannii BM4652 strains; assay: Potentiation of teicoplanin MIC by LpxA compound 4; type: cell-based, Acinetobacter baumannii
# [13] = test system: Pseudomonas aeruginosa PA0322 Δ(mexAB-oprM) Δ(mexCD-oprJ) Δ(mexEF-oprN); assay: MIC broth microdilution; type: cell-based
# [14] = test system: Acinetobacter baumannii ATCC 19606-1 ΔLpxC; assay: MIC broth microdilution; type: cell-based; details: ATCC19606
# H. influenzae ΔtolC = assay: MIC broth microdilution; type: cell-based; details: Haemophilus influenzae
# [15] = target: M. tuberculosis Dihydrofolate reductase (DHFR) (Mycobacterium tuberculosis, UniProt P9WNX1); assay: biochemical
# Chain of M. tuberculosis Dihydrofolate reductase (DHFR) (P9WNX1 whole entry): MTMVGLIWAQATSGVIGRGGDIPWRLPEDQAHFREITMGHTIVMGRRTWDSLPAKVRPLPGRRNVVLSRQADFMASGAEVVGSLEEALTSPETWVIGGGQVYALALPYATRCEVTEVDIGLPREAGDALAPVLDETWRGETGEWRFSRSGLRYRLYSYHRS
# M. tuberculosis H37Rv = assay: MIC determination against M. tuberculosis H37Rv (resazurin); type: cell-based; details: Mycobacterium tuberculosis
# Description: as §1, §2, §3, §4, §5, §6, §7, §8, §9, §10, §11
# 420 and 18 that contained DMSO control. Column 6 represented 100% Mtb DHFR activity in the absence of
# 421 GSK compounds. […] Compounds were
# 422 tested at 1% DMSO in 11 point dose response with a 1:3 dilution and fit to a standard 4 parameter fit to
# 423 calculate an IC50 value and are reported as the average of two replicates. Standard deviation values
# 424 were calculated using the n-1 method.
# 428 Minimum Inhibitory Concentration Assays:
# 429 MIC determination against M. tuberculosis H37Rv:
# 430 The measurement of the Minimum Inhibitory Concentration (MIC) against M. tuberculosis H37Rv for
# 431 each tested compound was performed in 96-well flat-bottom, polystyrene microtiter plates in a final
# 432 volume of 100 μl. Ten two-fold drug dilutions in neat DMSO starting at 50 mM were performed. Drug […]
# as §12, §13
# [16] = E. coli TOP10 ∆TolC + pHN678’-LolA antisense
# [17] = A. baumannii BM4652 efflux mutant + pRK415-UppS
# [18] = A. baumannii BM4652 efflux mutant + pRK415
# [19] = A. baumannii BM4652 efflux mutant, N/A (no plasmid)
# [20] = A. baumannii BM652 efflux strain
# [21] = A. baumannii BM4652 ΔadeABC ΔadeIJK efflux mutant
# [22] = M. tuberculosis DHFR, average of two replicates with s.d., read-out: IC50
molecule,measurement,setting,value
CC[C@H]1OC(=O)[C@H](C)[C@@H](O[C@H]2C[C@@](C)(OC)[C@@H](O)[C@H](C)O2)[C@H](C)[C@@H](O[C@@H]2O[C@H](C)C[C@H](N(C)C)[C@H]2O)[C@](C)(O)C[C@@H](C)CN(C)[C@H](C)[C@@H](O)[C@]1(C)O [Azithromycin],MIC,[1]; E. coli TOP10 ∆TolC + pHN678’,0.0156 µg/mL
same,MIC,[1]; [16],0.0039 µg/mL
same,Fold MIC decrease,[1],4 fold
same,MIC,[2]; [17],0.031 µg/mL
same,MIC,[2]; [18],0.031 µg/mL
same,MIC,[2]; [19],0.031 µg/mL
same,Fold MIC increase,[2],1 fold
same,Fold MIC increase,[2]; listed as azithromycin,unchanged
CC(C)(O/N=C(\C(=O)N[C@@H]1C(=O)N2C(C(=O)[O-])=C(C[n+]3ccccc3)CS[C@H]12)c1csc(N)n1)C(=O)O [Ceftazidime],MIC,[2]; [17],0.5 µg/mL
same,MIC,[2]; [18],0.5 µg/mL
same,MIC,[2]; [19],0.5 µg/mL
same,Fold MIC increase,[2],1 fold
same,Fold MIC increase,[2]; listed as ceftazidime,unchanged
O=C(O)c1cn(C2CC2)c2cc(N3CCNCC3)c(F)cc2c1=O [Ciprofloxacin],MIC,[1]; E. coli TOP10 ∆TolC + pHN678’,0.0078 µg/mL
same,MIC,[1]; [16],0.0078 µg/mL
CNC(=O)c1ccc2c(c1)nc(-c1ccc(Br)c(O)c1)n2C(CNC(=O)COc1ccccc1C(C)(C)C)c1ccc(OC)c(OC)c1 (stereo not shown) [Compound 1],IC50,[3],0.83 ± 0.05 nM
same,MIC,[4],0.5 µg/mL
same,MIC increase,[5]; MRS overexpressor induced with 0.1 μg ml^−1 anhydrotetracycline vs vector control strain,> 128 fold
same,MIC increase,[5]; MRS overexpressor uninduced vs vector control strain,8 fold
same,MIC,[5]; S. aureus RN4220 pYH4-MRS (induced with 0.1 µg/ml anhydrotetracycline),64 µg/mL
same,MIC,[5]; S. aureus RN4220 pYH4-MRS overexpressor (uninduced),4 µg/mL
same,MIC,[5]; S. aureus RN4220 pYH4 vector alone,0.5 µg/mL
CNC(=O)c1cccc(CNCc2cc(C(=O)N3CCN(c4cc(Cl)cc(Cl)c4)CC3)cc(C(C)(C)C)c2)c1 [Compound 2],IC50,[6],750 ± 210 nM
same,MIC,[4],4 µg/mL
Cc1cc(C)c(NC(=O)NC(CCC(=O)N2CCN(C)CC2)C(=O)Nc2cccc3c2CCCC3)c(C)c1 (stereo not shown) [Compound 4],MIC,[7],> 128 µg/mL
same,MIC,[8]; [20],> 64 µg/mL
same,MIC,[8]; [21],> 128 µg/mL
same,MIC,[9]; A. baumannii BM4652 (efflux-),> 128 µg/mL
same,MIC,[9]; A. baumannii BM4652/pRK415 (efflux-),> 128 µg/mL
same,MIC,[9]; A. baumannii BM4652/pRK415-LpxA (efflux-),> 128 µg/mL
same,MIC,"[9]; read-out: MGIC (minimum growth inhibition concentration), A. baumannii BM4652 (efflux-)",8 µg/mL
same,MIC,"[9]; read-out: MGIC (minimum growth inhibition concentration), A. baumannii BM4652/pRK415 (efflux-)",8 µg/mL
same,MIC,"[9]; read-out: MGIC (minimum growth inhibition concentration), A. baumannii BM4652/pRK415-LpxA (efflux-)",> 128 µg/mL
same,MIC,[10],> 128 µg/mL
same,MIC,[11],> 128 µg/mL
same,concentration of compound 4 required to completely potentiate teicoplanin,[12]; A. baumannii BM4652,32 µg/mL
same,concentration of compound 4 required to completely potentiate teicoplanin,[12]; A. baumannii BM4652 with LpxA overexpressor clone,> 128 µg/mL
same,MIC,[13],> 128 µg/mL
same,MIC,[14],> 128 µg/mL
CCNc1cc(N2CCc3cc(NS(C)(=O)=O)ccc3C2C)nc(-c2cc(F)cc(C#N)c2)n1 (stereo not shown) [Compound 6],MIC,[1]; E. coli TOP10 ∆TolC + pHN678’,128 µg/mL
same,MIC,[1]; [16],4 µg/mL
same,Fold MIC decrease,[1],32 fold
same,MIC,[7],> 128 µg/mL
same,MIC,[8]; [20],> 128 µg/mL
same,MIC,[8]; [21],> 128 µg/mL
same,MIC,[10],> 128 µg/mL
same,MIC,H. influenzae ΔtolC,2 µg/mL
same,MIC,[11],> 128 µg/mL
same,MIC,[13],> 128 µg/mL
same,MIC,[14],32 µg/mL
Cc1ccc(S(=O)(=O)NCCN(CCC(N)=O)C(=O)c2cc(O)cc(NC(=O)CN3C(=O)C(C)Oc4ccccc43)c2)cc1 (stereo not shown) [Compound 7],IC50,[15]; [22],492 ± 4 nM
same,MIC,M. tuberculosis H37Rv,80 µM
COc1ccc(OC)c(Cc2cnc3nc(N)nc(N)c3c2C)c1 [Compound 8],IC50,[15],610 ± 420 nM
same,MIC,M. tuberculosis H37Rv,2.5 µM
Cc1cccc(NC(=O)Cc2c(C(=O)O)[nH]c3ccccc23)n1 [Compound 9],IC50,[15]; [22],4900 ± 2200 nM
same,MIC,M. tuberculosis H37Rv,80 µM
C[C@@H](O)[C@H]1C(=O)N2C(C(=O)O)=C(SCCN=CN)C[C@H]12 [Imipenem],MIC,[1]; E. coli TOP10 ∆TolC + pHN678’,1 µg/mL
same,MIC,[1]; [16],1 µg/mL
teicoplanin,MIC of teicoplanin,"[12]; A. baumannii BM4652/pRK415-LpxA, compound 4 at 0 µg/ml",> 64 µg/mL
same,MIC of teicoplanin,"[12]; A. baumannii BM4652/pRK415-LpxA, compound 4 at 4 µg/ml",> 64 µg/mL
same,MIC of teicoplanin,"[12]; A. baumannii BM4652/pRK415-LpxA, compound 4 at 8 µg/ml",> 64 µg/mL
same,MIC of teicoplanin,"[12]; A. baumannii BM4652/pRK415-LpxA, compound 4 at 16 µg/ml",> 64 µg/mL
same,MIC of teicoplanin,"[12]; A. baumannii BM4652/pRK415-LpxA, compound 4 at 32 µg/ml",> 64 µg/mL
same,MIC of teicoplanin,"[12]; A. baumannii BM4652/pRK415-LpxA, compound 4 at 64 µg/ml",> 64 µg/mL
same,MIC of teicoplanin,"[12]; A. baumannii BM4652/pRK415-LpxA, compound 4 at 128 µg/ml",> 64 µg/mL
same,MIC of teicoplanin,"[12]; A. baumannii BM4652/pRK415, compound 4 at 0 µg/ml",> 64 µg/mL
same,MIC of teicoplanin,"[12]; A. baumannii BM4652/pRK415, compound 4 at 4 µg/ml",> 64 µg/mL
same,MIC of teicoplanin,"[12]; A. baumannii BM4652/pRK415, compound 4 at 8 µg/ml",> 64 µg/mL
same,MIC of teicoplanin,"[12]; A. baumannii BM4652/pRK415, compound 4 at 16 µg/ml",> 64 µg/mL
same,MIC of teicoplanin,"[12]; A. baumannii BM4652/pRK415, compound 4 at 32 µg/ml",0.5 µg/mL
same,MIC of teicoplanin,"[12]; A. baumannii BM4652/pRK415, compound 4 at 64 µg/ml",0.5 µg/mL
same,MIC of teicoplanin,"[12]; A. baumannii BM4652/pRK415, compound 4 at 128 µg/ml",0.5 µg/mL
same,MIC of teicoplanin,"[12]; A. baumannii BM4652, compound 4 at 0 µg/ml",> 64 µg/mL
same,MIC of teicoplanin,"[12]; A. baumannii BM4652, compound 4 at 4 µg/ml",> 64 µg/mL
same,MIC of teicoplanin,"[12]; A. baumannii BM4652, compound 4 at 8 µg/ml",> 64 µg/mL
same,MIC of teicoplanin,"[12]; A. baumannii BM4652, compound 4 at 16 µg/ml",16 µg/mL
same,MIC of teicoplanin,"[12]; A. baumannii BM4652, compound 4 at 32 µg/ml",0.5 µg/mL
same,MIC of teicoplanin,"[12]; A. baumannii BM4652, compound 4 at 64 µg/ml",0.5 µg/mL
same,MIC of teicoplanin,"[12]; A. baumannii BM4652, compound 4 at 128 µg/ml",0.5 µg/mL
